The structures appear in SMILES notation.

Data set [1] has as its system GSH. In words: Intracellular GSH in MDMs infected with HIV-1/Ba-L. In kind it is cell-based, human. The note with it: MDMs with GSH deficiency after infection with HIV-1/Ba-L. On the procedure: The intracellular GSH was assayed by means of the assay kit sold by Cayman. This method for assaying glutathione is an adaptation of that described by O. W. Griffith et al. (1980).
The compound I-152 and its derivatives are prepared extemporaneously by being dissolved in dimethyl sulfoxide (DMSO) at the concentration of 100 mM. They are subsequently stored at −20° C. after having been diluted 10 fold in phosphate buffer (PBS).

In another data set the test system is MDMs. Put plainly: Cytotoxicity with respect to MDMs (neutral red). In kind it is cell-based, human. As to conditions: MDMs. On the procedure: These tests are carried out systematically in parallel with the evaluation of the antiviral activity. In view of the oxidation/reduction capacity of the molecules tested, the test with the tetrazolium salt, which measures the activity of mitochondrial dehydrogenases, cannot be used.
Neutral red (NR) is a vital dye which makes it possible to measure the viability of adherent cells, such as MDMs. 600 μl of culture supernatant are removed and replaced with 400 μl of an NR solution (0.001% m/v in phosphate buffer, PBS, Boehringer Mannheim), filtered at 0.45 μm. The cells were incubated for 1 h at 37° C. and are subsequently washed (2×1 ml of PBS). The cells are then lysed at −20° C. with 200 μl of a 50% ethanol mixture comprising 1% of glacial acetic acid. The OD is measured twice with 100 μl of solution using a spectrophotometer.

The test system of data set [2] is HIV-1/Ba-L. In words: Antiviral activity in MDM cultures infected with HIV-1/Ba-L (RT activity in culture supernatants). The format is cell-based. The note with it: Human immunodeficiency virus 1, BAL; MDMs infected with 1 000 TCID50 (m.o.i. 0.001); read-out: 50% effective dose (ED).
Data set [3] deals with HIV-1/Ba-L. In words: Antiviral activity in human spleen macrophages infected with HIV-1/Ba-L. In kind it is cell-based. As to conditions: Human immunodeficiency virus 1, BAL, Macrophage, read-out: concentration that decreases HIV replication by 50%. An excerpt:
The spleen is dissected and sieved and then the mononuclear cells are isolated using a density gradient, on a Ficoll cushion. The monocytes/macrophages are obtained by adherence to the plastic. The monocytes were allowed to differentiate into macrophages for 7 days, at which time they were infected.
Retroviral replication within this cell population, and thus the effectiveness of a molecule such as I-152, is conditioned partly by the level of cell differentiation. It was therefore important to make sure of the antiviral effectiveness of I-152 in monocytes/macrophages with a degree of maturation which can be different from that of MDMs. We have thus evaluated the antiviral activity of I-152 and its ability to regenerate the intracellular level of GSH in spleen macrophages. In this cell populations, the HIV-1/Ba-L strain also replicates at high […]. […] This is because the concentration of 38 μM decreases HIV replication by 50% in this spleen cell population (table III). […] It should be noted that, in the spleen macrophages, as in the macrophages derived from blood monocytes, infection by HIV leads to a deficiency of GSH (MDM; FIG. 16).

In data set [4] the test system is GSH. In words: Intracellular GSH in MDMs stimulated with LPS and IFN-γ. The note with it: MDMs stimulated with LPS (1 μg/ml) and IFN-γ (100 IU/ml). In kind it is cell-based, human. On the procedure: The intracellular GSH was assayed by means of the assay kit sold by Cayman. This method for assaying glutathione is an adaptation of that described by O. W. Griffith et al. (1980). Tumor necrosis factor (TNF-α), like the oxygen-comprising or nitrogen-comprising radical components, plays a major role in the apoptotic processes associated with infection the HIV. Furthermore, the radical components can promote the synthesis of this proinflammatory cytokine. For this reason, the effects of I-152 in decreasing the synthesis of TNF-α were thus looked for in MDMs stimulated by a bacterial lipopolysaccharide and interferon (IFN-γ).

Data set [5] concerns the target T1, RT of the HIV-1 LAI isolate (Human immunodeficiency virus type 1 group M subtype B, UniProt P03367).
T1 construct: The RT is released by lysis of the viral pellet in 20 μl of NTE-Triton; endogenous in cells; host or cells: Virions pelleted by ultracentrifugation from supernatants of infected cell cultures
In words: Acellular test of the enzymatic activity of RT. The format is biochemical. As to conditions: acellular system. Here is the method: The viral replication is measured by assaying the RT activity in the culture supernatants according to the technique described by F. Rey et al. (Biochem. Biophys. Res. Comm., 1984, 121, 126-133). The radioactivity incorporated during the extension of the complementary strand of a poly-rA synthetic matrix in the presence of an oligo-dT12-18 primer and of a radiolabeled substrate, [^3H-methyl]thymidine-5′-triphosphate ([^3H]TPP), makes it possible to assay the enzymatic activity of RT. 400 μl of supernatant are ultracentrifuged at 360 000 g for 5 min. The RT is released by lysis of the viral pellet in 20 μl of NTE-Triton (100 mM NaCl, 10 mM Tris, 1 mM EDTA, 0.1% Triton X-100). These 20 μl are subsequently incubated with 40 μl of the following reaction mixture: 62.5 mM Tris, pH 7.8; 25 mM KCl; 6.25 mM MgCl2; 1.25 mM dithiothreitol (DTT); 2.5×10^−3 ODU oligo-dT12-18 and poly-rA, 5.55×10^−3 TBq {^3H]TTP. After one hour at 37° C., the enzymatic reaction is halted and the newly synthesized strands are precipitated for 20 min at 4° C. by the addition of 1 ml of sodium pyrophosphate (NaPP), of 50 μl of yeast DNA (0.1 mg/ml in 5% trichluoroacetic acid (TCA)), and of 4 ml of 20% TCA. The mixture is filtered using a cellulose acetate membrane (Millipore) which retains the radiolabeled poly-dT chains. The filter is washed using 20 ml of 5% TCA and the residual water is removed by addition of 25 μl of 70% ethanol. The filter is dried in an oven for 10 minutes at 80° C. and is then introduced into vials containing 8 ml of liquid scintillant. The β radioactivity is quantified by means of a scintillation counter (Packard Bell). The results are expressed in pM of [^3H]-TMP incorporated/h/ml of supernatant or, more simply, in cpm/h/ml.
The I-152 molecule is composed of NAC and MEA, which are capable of inhibiting the activity of RT (A. Bergamini et al., J. Clin. Invest., 1994, 93, 2251-2257). For this reason, the inhibiting capacity of I-152 with respect to the RT activity was measured using an acellular test. This test was carried out according to the protocol described above (§ 3.3.3.1.). In the reaction mixture, only the 20 μl of water are replaced by 20 μl of a concentration of I-152 or of the reference compounds. Heparin, known for inhibiting the activity of RT and of the other DNA polymerases, is used as positive control for inhibition.

As to `CC(=O)N[C@@H](CS)C(=O)NCCSC(C)=O` [I-152, N-(N-acetyl-L-cysteinyl)-S-acetylcysteamine], the “regeneration of intracellular GSH level (in words)” value in the data set on GSH [1] is recorded as “capable of regenerating an abnormally low intracellular level”. In addition, the “cytotoxicity (in words)” value in the data set with MDMs (500 μM (10 times the 50% effective dose)) and with PBMCs was “not cytotoxic” each time. Besides, in the data set on MDMs (antiviral doses), the “cytotoxicity at antiviral doses (in words)” value was “not cytotoxic”. The values for the EC50 with HIV-1/Ba-L [2] and in the data set with HIV-1/Ba-L [3] were 3 µM and 38 µM, respectively. Further, the “concentration of GSH (in words)” value in the data set on GSH [4] is reported as “increases the concentration of GSH”. Besides, the “inhibiting activity with respect to RT (in words)” value in data set [5] is listed as “do not exhibit an inhibiting activity”.

The values above are taken from patent US6979747B2, “Antioxidants, preparation processes and their uses” (Centre National de la Recherche Scientifique (CNRS), priority 1999, dated 2005).
